Data on four compounds can be found in PMC5132016 (Clinical Pharmacology in Drug Development, 2016).

Data set [1] is described as follows: Single-dose pharmacokinetics of EE and LN. It is filed as in vivo, human. The following applies: for Tmax: single oral Microgynon 30 alone, median (range), n = 19.
The conditions of data set [2]: cited from earlier work.
For data set [3] the following is noted: tofacitinib 30 mg twice daily; cited from earlier work.
Where [4] appears, read: female, human, plasma, oral, adjusted geometric mean, Reference (Microgynon 30 alone).
Setting [5] is: tofacitinib 30 mg twice daily vs Microgynon 30 alone.
Setting [6] is: Microgynon 30 + tofacitinib / Microgynon 30 alone.

In general, AUC(0-inf) refers to the area under the concentration-time curve extrapolated to infinity. With `C#C[C@]1(O)CC[C@H]2[C@@H]3CCc4cc(O)ccc4[C@H]3CC[C@@]21C` [Ethinylestradiol, ethinylestradiol], in data set [1] (setting [4]), the AUC(0-inf) is 0.716 ng·h/mL. Also, the Tmax in data set [1] was 1.5 (1.0–2.1) h. For the same compound, in data set [1] (setting [5]), the “Decrease of maximal plasma concentration when coadministered with tofacitinib” value is given as 10.4% and the “Increase of AUC∞ in the presence of tofacitinib” value is on record as 6.6%.

The AUC(0-t) is the area under the concentration-time curve up to a stated or last time point. Low readings indicate less exposure, high ones more exposure. By Cmax is commonly meant the highest concentration seen after dosing. With `C#C[C@]1(O)CC[C@H]2[C@@H]3CCC4=CC(=O)CC[C@@H]4[C@H]3CC[C@@]21CC` [Levonorgestrel, levonorgestrel], in data set [1] (setting [6]), the “Ratio (Test/Reference) of adjusted geometric means, AUClast” value is listed as 104.60%; the “Ratio (Test/Reference) of adjusted geometric means, AUC∞” value is recorded as 100.87%; the “Ratio (Test/Reference) of adjusted geometric means, Cmax” value is 112.19%. The area under the curve AUC(0-t) in data set [1] (female, human, plasma, oral, AUClast, adjusted geometric mean, Reference (Microgynon 30 alone)) is 35 ng·h/mL. In addition, the AUC(0-inf) in data set [1] (setting [4]) was 44.6 ng·h/mL. In data set [1] (female, human, plasma, oral, Cmax, adjusted geometric mean, Reference (Microgynon 30 alone)), this compound showed a Cmax of 3.78 ng/mL. In data set [1], the Tmax is listed as 1.0 (1.0–2.0) h. In data set [1] (setting [5]), the “Increase of AUC∞ in the presence of tofacitinib” value came out at 0.9% and the “Increase of maximal plasma concentration when coadministered with tofacitinib” value was determined as 12.2%.

Regarding `C[C@@H]1CCN(C(=O)CC#N)C[C@@H]1N(C)c1ncnc2[nH]ccc12` [Tofacitinib], in data set [2], the “Nonrenal share of clearance” value is on record as 70%, the “Renally excreted share of clearance” value is 30% and the “Share of metabolism by CYP3A4” value was “approximately 55%”. Further, in data set [1] (tofacitinib 30 mg twice daily for 11 days, healthy women), the “Effect on the pharmacokinetics of EE and LN” value is “no clinically relevant net inhibitory or inductive effect”.

On to `Cc1ncc2n1-c1ccc(Cl)cc1C(c1ccccc1F)=NC2` [midazolam], for which, in data set [3], the “Change in Cmax when coadministered with tofacitinib” value is given as “no change” and the “Change in total exposure (AUC∞) when coadministered with tofacitinib” value was “no change”.
